Data: ChEMBL document CHEMBL1201862, “PubChem BioAssay data set” (2004)
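Method: 48-hour compound exposure of cells in 96-well plates, five concentrations, linear interpolation of endpoints. Abbreviation: GI50, concentration required for 50% inhibition of growth.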 The source made the active and inactive calls. No stated cut-off is given here; in the data, active = GI50 up to about 1.1 µM and inactive = higher.

What was measured:
Experiment in all cases: NCI tumour cell line growth inhibition, 48 h
RXF 393 = test system: RXF 393
OVCAR-8 = test system: OVCAR-8
COLO 205 = test system: COLO 205
NCI-H460 = test system: NCI-H460
T47D = test system: T47D
OVCAR-4 = test system: OVCAR-4
SN12C = test system: SN12C
UACC-257 = test system: UACC-257
HOP-62 = test system: HOP-62
A498 = test system: A498
HCT-15 = test system: HCT-15
SK-MEL-28 = test system: SK-MEL-28
MDA-MB-231 = test system: MDA-MB-231
DU-145 = test system: DU-145
UO-31 = test system: UO-31
ACHN = test system: ACHN
NCI-H226 = test system: NCI-H226
A549 = test system: A549
SK-MEL-5 = test system: SK-MEL-5
IGROV-1 = test system: IGROV-1

Row | SMILES | GI50 (RXF 393) | GI50 (OVCAR-8) | GI50 (COLO 205) | GI50 (NCI-H460) | GI50 (T47D) | GI50 (OVCAR-4) | GI50 (SN12C) | GI50 (UACC-257) | GI50 (HOP-62) | GI50 (A498) | GI50 (HCT-15) | GI50 (SK-MEL-28) | GI50 (MDA-MB-231) | GI50 (DU-145) | GI50 (UO-31) | GI50 (ACHN) | GI50 (NCI-H226) | GI50 (A549) | GI50 (SK-MEL-5) | GI50 (IGROV-1)
1 | COc1ccc(O)c(/C=N\Nc2ccccc2)c1 | 84.3 µM (inactive) | 22.1 µM (inactive) | 10.6 µM (inactive) | 4.79 µM (inactive) | 0.402 µM (active) | 8.45 µM (inactive) | 29.6 µM (inactive) | 16.7 µM (inactive) | 44.7 µM (inactive) | 15.5 µM (inactive) | 8.65 µM | 25.4 µM (inactive) | 7.03 µM (inactive) | 25.5 µM (inactive) | 4.14 µM (inactive) | 7.85 µM (inactive) | 20.6 µM (inactive) | 6.22 µM (inactive) | 22.5 µM (inactive) | –
2 | Brc1cccc(C2ON=C(c3ccccc3)N2C23CC4CC(CC(C4)C2)C3)c1 (stereo not drawn) | > 10 µM (inactive) | > 10 µM (inactive) | > 10 µM (inactive) | > 10 µM (inactive) | > 10 µM (inactive) | > 10 µM (inactive) | > 10 µM (inactive) | > 10 µM (inactive) | > 10 µM (inactive) | > 10 µM (inactive) | > 10 µM | > 10 µM (inactive) | > 10 µM (inactive) | > 10 µM (inactive) | > 10 µM (inactive) | > 10 µM (inactive) | > 10 µM (inactive) | > 10 µM (inactive) | > 10 µM (inactive) | > 10 µM (inactive)
3 | COc1cccc2c1C(=O)C=CC2=O | 6.76 µM (inactive) | 3.58 µM (inactive) | 7.06 µM (inactive) | 15.6 µM (inactive) | 2.22 µM (inactive) | 1.95 µM (inactive) | 14 µM (inactive) | 15.5 µM (inactive) | 19.9 µM (inactive) | 16.2 µM (inactive) | 7.85 µM | 17.5 µM (inactive) | 2.15 µM (inactive) | 19.2 µM (inactive) | 15.4 µM (inactive) | 4.39 µM (inactive) | 19.1 µM (inactive) | 20 µM (inactive) | 15.3 µM (inactive) | 12.2 µM (inactive)
4 | C1=N\CCNCCNCC/N=C\c2ccc(cc2)OCc2cccc(n2)COc2ccc/1cc2 | > 100 µM (inactive) | > 100 µM (inactive) | > 100 µM (inactive) | 73.6 µM (inactive) | 53.3 µM (inactive) | 68.5 µM (inactive) | > 100 µM (inactive) | 88.5 µM (inactive) | > 100 µM (inactive) | > 100 µM (inactive) | > 100 µM | > 100 µM (inactive) | > 100 µM (inactive) | > 100 µM (inactive) | > 100 µM (inactive) | > 100 µM (inactive) | > 100 µM (inactive) | > 100 µM (inactive) | 51.4 µM (inactive) | > 100 µM (inactive)
5 | c1ccc2c(c1)Nc1c3ccccc3nc3cccc-2c13 | 1.51 µM (inactive) | 0.507 µM (active) | 0.857 µM (active) | 0.378 µM (active) | 2.06 µM (inactive) | 1.15 µM (inactive) | 0.979 µM (active) | 1.73 µM (inactive) | 1.02 µM (active) | 2.51 µM (inactive) | 0.632 µM | 1.71 µM (inactive) | 0.923 µM (active) | 1.48 µM (inactive) | 1.36 µM (inactive) | 0.818 µM (active) | 2.01 µM (inactive) | 1.05 µM (active) | 1.42 µM (inactive) | 1.21 µM (inactive)
6 | CCc1n[nH]c(=O)n1N1C(=O)CCC1=O | > 100 µM (inactive) | > 100 µM (inactive) | > 100 µM (inactive) | > 100 µM (inactive) | > 100 µM (inactive) | > 100 µM (inactive) | > 100 µM (inactive) | > 100 µM (inactive) | > 100 µM (inactive) | > 100 µM (inactive) | > 100 µM | > 100 µM (inactive) | > 100 µM (inactive) | > 100 µM (inactive) | > 100 µM (inactive) | > 100 µM (inactive) | > 100 µM (inactive) | > 100 µM (inactive) | > 100 µM (inactive) | > 100 µM (inactive)
7 | Cc1ccc2c(=O)c(-c3nnc(NC4CCCCC4)s3)c[nH]c2n1 | > 100 µM (inactive) | > 100 µM (inactive) | > 100 µM (inactive) | > 100 µM (inactive) | 50 µM (inactive) | > 100 µM (inactive) | > 100 µM (inactive) | > 100 µM (inactive) | > 100 µM (inactive) | > 100 µM (inactive) | > 100 µM | > 100 µM (inactive) | > 100 µM (inactive) | > 100 µM (inactive) | > 100 µM (inactive) | > 100 µM (inactive) | > 100 µM (inactive) | > 100 µM (inactive) | 40.9 µM (inactive) | > 100 µM (inactive)
8 | Cn1c(=S)c2nc(SCCN3CCCC3)[nH]c2n(C)c1=O | > 100 µM (inactive) | > 100 µM (inactive) | > 100 µM (inactive) | > 100 µM (inactive) | > 100 µM (inactive) | > 100 µM (inactive) | > 100 µM (inactive) | > 100 µM (inactive) | > 100 µM (inactive) | > 100 µM (inactive) | > 100 µM | > 100 µM (inactive) | > 100 µM (inactive) | > 100 µM (inactive) | > 100 µM (inactive) | > 100 µM (inactive) | > 100 µM (inactive) | > 100 µM (inactive) | > 100 µM (inactive) | > 100 µM (inactive)
9 | Cc1ccc([C@H]2CC(=O)C[C@H](c3ccc(C)cc3)C23C(=O)c2ccccc2C3=O)cc1 | 19.1 µM (inactive) | 31 µM (inactive) | 37.2 µM (inactive) | 47.2 µM (inactive) | > 100 µM (inactive) | 18.6 µM (inactive) | 48.4 µM (inactive) | 15.4 µM (inactive) | 22.1 µM (inactive) | > 100 µM (inactive) | 34.8 µM | > 100 µM (inactive) | 54.7 µM (inactive) | > 100 µM (inactive) | > 100 µM (inactive) | 63.4 µM (inactive) | 34.5 µM (inactive) | 43.2 µM (inactive) | 34.4 µM (inactive) | 40 µM (inactive)
10 | CCOC(=O)c1c(N2CCOCC2)[nH]c(=O)c(C(c2cccs2)c2c(O)c(C(=O)OCC)c(N3CCOCC3)[nH]c2=O)c1O | > 100 µM (inactive) | > 100 µM (inactive) | > 100 µM (inactive) | > 100 µM (inactive) | > 100 µM (inactive) | > 100 µM (inactive) | > 100 µM (inactive) | > 100 µM (inactive) | > 100 µM (inactive) | > 100 µM (inactive) | > 100 µM | > 100 µM (inactive) | > 100 µM (inactive) | > 100 µM (inactive) | > 100 µM (inactive) | > 100 µM (inactive) | > 100 µM (inactive) | > 100 µM (inactive) | > 100 µM (inactive) | –
11 | CC1=C(Nc2c(C)cc(O)cc2O)C(=O)C=c2oc3c(c21)C(C)=C(Nc1c(C)cc(O)cc1O)C(=O)C=3 | > 100 µM (inactive) | 38 µM (inactive) | 20.8 µM (inactive) | 30.3 µM (inactive) | 52.4 µM (inactive) | 57.4 µM (inactive) | 30.4 µM (inactive) | 29.8 µM (inactive) | 32.8 µM (inactive) | > 100 µM (inactive) | 46.6 µM | 52.5 µM (inactive) | 36.6 µM (inactive) | 54.3 µM (inactive) | 50.8 µM (inactive) | > 100 µM (inactive) | 43.9 µM (inactive) | 38.5 µM (inactive) | 17.2 µM (inactive) | 30.1 µM (inactive)
12 | COc1cc(C)cc2c1C(=O)C(Br)=CC2=O | 3.31 µM (inactive) | 6.34 µM (inactive) | 1.72 µM (inactive) | 19.4 µM (inactive) | 2.21 µM (inactive) | 2.75 µM (inactive) | 15.7 µM (inactive) | 13.7 µM (inactive) | 17.8 µM (inactive) | 20.1 µM (inactive) | 17.4 µM | 17.4 µM (inactive) | 14.7 µM (inactive) | 18.3 µM (inactive) | 5.38 µM (inactive) | 2.52 µM (inactive) | 17.4 µM (inactive) | 21.2 µM (inactive) | 12.6 µM (inactive) | 17.7 µM (inactive)
13 | Cc1cccc(/N=C/C=C(\Cl)c2ccc3ccccc3c2)c1 | 15.6 µM (inactive) | 18.4 µM (inactive) | 17.9 µM (inactive) | 28.4 µM (inactive) | 4.88 µM (inactive) | 11.2 µM (inactive) | 16.6 µM (inactive) | 15.7 µM (inactive) | 17 µM (inactive) | > 100 µM (inactive) | 11.7 µM | 17.5 µM (inactive) | 15.9 µM (inactive) | 17.7 µM (inactive) | 16.2 µM (inactive) | 16.4 µM (inactive) | 34.1 µM (inactive) | 44.6 µM (inactive) | 17.7 µM (inactive) | 20.6 µM (inactive)
14 | CC(C)/C(Cl)=N\OC(=O)Nc1ccc(S(N)(=O)=O)cc1 | 12.6 µM (inactive) | 17.9 µM (inactive) | 1.98 µM (inactive) | 20.5 µM (inactive) | 22.6 µM (inactive) | 25 µM (inactive) | 13.9 µM (inactive) | 17.4 µM (inactive) | > 42.6 µM (inactive) | 17 µM (inactive) | 16.6 µM | 16.2 µM (inactive) | 12.7 µM (inactive) | 17.9 µM (inactive) | 16.6 µM (inactive) | 13.9 µM (inactive) | 21 µM (inactive) | 20 µM (inactive) | 15.9 µM (inactive) | 17.5 µM (inactive)
